Source: publication PMC5999327 (Organic letters, 2018)

How the values were obtained:
Cal27 cells [1] = assay: MTT cytotoxicity assay; assay type: cell-based; conditions: Homo sapiens, CAL-27, read-out: MTT (Cal27) IC50
Cal27 cells [2] = assay: whole cell HDAC assay with Boc-Lys; assay type: cell-based; conditions: Homo sapiens, CAL-27, read-out: HDAC (Cal27) IC50
HDAC1 = HDAC1 (Homo sapiens, UniProt Q13547); assay: biochemical HDAC assay with ZMAL substrate, HDAC1; conditions: read-out: HDAC1 IC50
Chain of HDAC1 (Q13547 whole entry): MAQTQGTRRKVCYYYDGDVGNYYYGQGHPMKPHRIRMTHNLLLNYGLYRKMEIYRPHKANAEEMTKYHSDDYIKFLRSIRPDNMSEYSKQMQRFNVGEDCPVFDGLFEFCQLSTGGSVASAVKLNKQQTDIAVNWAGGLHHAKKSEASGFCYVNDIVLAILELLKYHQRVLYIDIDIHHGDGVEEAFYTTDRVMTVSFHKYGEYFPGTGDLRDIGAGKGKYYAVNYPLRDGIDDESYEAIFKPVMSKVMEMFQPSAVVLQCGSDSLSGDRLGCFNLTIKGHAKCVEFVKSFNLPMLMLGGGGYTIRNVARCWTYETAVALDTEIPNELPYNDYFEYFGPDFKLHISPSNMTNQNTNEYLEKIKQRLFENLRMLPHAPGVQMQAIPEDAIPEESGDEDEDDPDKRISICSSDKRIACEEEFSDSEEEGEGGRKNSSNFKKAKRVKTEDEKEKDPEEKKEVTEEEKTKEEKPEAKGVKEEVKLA

Cal27 cells [3] = assay: western blotting of α-tubulin and histone H3 acetylation in Cal27; assay type: cell-based, human; conditions: western blot, Cal27, compared to control

IC50 (Cal27 cells [2]) [µM]	IC50 (HDAC1) [µM]	Structure (SMILES)	IC50 (Cal27 cells [1]) [µM]	acetylation of α-tubulin (Cal27 cells [3])	acetylation of histone H3 (Cal27 cells [3])
5.87		CCCCN(Cc1ccc(C(=O)NO)cc1)C(=O)Nc1ccccc1 [Nexturastat A]	7.75		
	2.1	O=C(NO)c1ccc(CC(=O)N(CCO)c2ccccc2)cc1 [HPOB]			
11.4		CN1CCc2c(c3ccccc3n2Cc2ccc(C(=O)NO)cc2)C1 [Tubastatin A]	5.34	preferential hyperacetylation of α-tubulin	
		O=C(CCCCCCC(=O)Nc1ccccc1)NO [vorinostat]		increase in acetylation	increase in acetylation
